The source of these data is PubChem BioAssay AID1963848 (Molecular Pharmacology Branch, DTP, NCI, 2024).

Several values for one entry are separate records, joined by “and”; a condition that tells them apart may be missing. Identical values can stand only once.

The subject of this experiment is 379773-124-R-J2-PDC spheroid viability. In words: Anticancer human tumor 379773-124-R-J2-PDC patient-derived endometrial carcinoma cell line growth inhibition [POLQ]. The settings on record: spheroids with HUVEC and MSC; for viability, T/C: stronger effect = lower value. The protocol: Multicellular complex tumor spheroid response to Polymerase (POL) inhibitors (novobiocin, ART-558, RP6685) in combination with a variety of drugs and investigational agents in selected tumor cell lines
The POL inhibitors (novobiocin, ART-558, and RP6685) were evaluated both individually and in combination with standard of care and investigational anticancer small molecules within a complex spheroid model of solid tumors. . Complex spheroids include a stromal component modeled by human endothelial cells (HUVEC) and fibroblasts modeled by human mesenchymal stem cells (MSCs). The concentration ranges selected for each drug and investigational agent were based upon clinically achievable concentrations if the clinical Cmax of the agent was known.
Compounds. The drugs and investigational agents: novobiocin (NSC847541), ART-558 (NSC835418), RP-6685 (NSC848927), peposertib (NSC802822), ceralasertib (NSC780249), elimusertib (NSC800525), camonsertib (NSC841442), AZD-1390 (NSC803789), olaparib (NSC753686), talazoparib (NSC767125), rucaparib (NSC756644), sotorasib (NSC818433), MRTX-1133 (NSC836407), SN-38 (NSC673596), topotecan (NSC609699), epotoside (NSC141540), doxorubicin (NSC123127), gemcitabine (NSC613327), 5-fluorouracil (NSC19893), paclitaxel (NSC125973), vemurafenib (NSC761431), MSA-2 (NSC828583), SN-011 (NSC837082), adavosertib (NSC754352), prexasertib (NSC758257), carboplatin (NSC241240) and oxaliplatin (NSC266046), were obtained from the National Cancer Institute (NCI) Developmental Therapeutics Program Chemical Repository (21). The FDA-approved anticancer drug set is available from the Developmental Therapeutics Program at https://dtp.cancer.gov/organization/dscb/obtaining/. […] The stock solutions were prepared in dimethyl sulfoxide (DMSO, Sigma-Aldrich, St. Louis, MO, cat. D2650), except for the platinum compounds which were prepared in saline (Quality Biological, Gaithersburg, MD, cat. 114-055-101), at 800-fold the tested concentration and stored at -70 degrees C prior to their use. All drugs and investigational agents were tested over a range starting from a high concentration at or near the clinical Cmax and decreasing in half-log increments. If the clinical Cmax for an agent had not been determined, the highest concentration tested was 10 microM, except for SN-38, which was tested at a high concentration of 1 microM.
Cell Culture. All cells were maintained in an incubator at 37 degrees C and 5% CO2 with 95% humidity. The PDC lines were cultured according to standard operating procedures established by the NCI PDMR (https://pdmr.cancer.gov). Table 3 of the manuscript, lists the cell lines along with the number of the three cell types plated to form the mct-spheroids and media for tumor cell growth. After thawing, all PDC lines, except 997537-175-T-J1-PDC and 415267-285-R-J2-PDC, were cultured in Matrigel-coated flasks prepared with a working solution of 1X Ham's F-12 nutrient mix, without supplementation (Thermo Fisher Scientific, cat. 11765054), 100 U/mL penicillin-streptomycin (Thermo Fisher Scientific, cat. 15140122), and 2.5% Matrigel (Corning Inc., Corning, NY, cat. 354248) for the first three passages. The two PDC lines 997537-175-T-J1-PDC and 415267-285-R-J2-PDC were cultured on uncoated flasks. The 857933-349-R-J2-PDC line was cultured in 6C/Colon 1B media containing advanced DMEM/F-12 (Thermo Fisher Scientific, cat. 12634028), 10 mM HEPES (Thermo Fisher Scientific, cat. 15630080), 1X GlutaMAX supplement (Thermo Fisher Scientific, cat. 35050061), 0.1 mg/mL primocin (InvivoGen, San Diego, CA, cat. ant-pm-2), 10% defined fetal bovine serum, heat inactivated (HyClone Laboratories Inc., Logan, UT, cat. SH30070.03HI), 50% L-WRN conditioned media (ATCC, cat. CRL-3276), 1.25 mM N-Acetyl-L-cysteine (Sigma-Aldrich, cat. A9165), 10 mM nicotinamide (Sigma-Aldrich, cat. N0636), 1X B-27 supplement (Thermo Fisher Scientific, cat. 17504044), 1X N-2 supplement (Thermo Fisher Scientific, cat. […]
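Note: spheroids exposed to drugs for seven days before readout.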
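Throughout, for viability, T/C: percent viability relative to DMSO vehicle control taken as 100%.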

Regarding `COc1cccc(OCCCN)c1-c1cc(Nc2cnc(C#N)cn2)n[nH]1` + Cc1cccc(N(C)C(=O)C2C(O)CCN2c2nc(C)cc(C(F)(F)F)c2C#N)c1, the IC50 was determined as 6.72 nM (curve of first compound, second compound 0.0316 µM); 6.43 nM (curve of first compound, second compound 0.1 µM); 6.04 nM (curve of first compound, second compound 0.316 µM); 6.31 nM (curve of first compound, second compound 1 µM); 6.03 nM (curve of first compound, second compound 3.16 µM); 6.19 nM (curve of first compound, second compound 10 µM). Moreover, the viability, T/C by setting is: (second compound 0.0316 µM, first compound 0.00316 µM) 87.1%; (second compound 0.0316 µM, first compound 0.01 µM) 30.5%; (second compound 0.0316 µM, first compound 0.0316 µM) 2.41%; (second compound 0.0316 µM, first compound 0.1 µM) 2.05%; (second compound 0.0316 µM, first compound 0.316 µM) 1.74%; (second compound 0.0316 µM, first compound 1 µM) 1.59%. For the same compound, the viability, T/C (second compound 0.1 µM, first compound 0.00316 µM) was 92.8%; the viability, T/C (second compound 0.1 µM, first compound 0.01 µM) is 23.4%; the viability, T/C (second compound 0.1 µM, first compound 0.0316 µM) was 3.34%; the viability, T/C (second compound 0.1 µM, first compound 0.1 µM) is 3.31%; the viability, T/C (second compound 0.1 µM, first compound 0.316 µM) was 2.36%; the viability, T/C (second compound 0.1 µM, first compound 1 µM) was 1.82%. Also, the viability, T/C is 85.5% (second compound 0.316 µM, first compound 0.00316 µM); 22.3% (second compound 0.316 µM, first compound 0.01 µM); 3.19% (second compound 0.316 µM, first compound 0.0316 µM); 1.9% (second compound 0.316 µM, first compound 0.1 µM); 1.95% (second compound 0.316 µM, first compound 0.316 µM); 2.25% (second compound 0.316 µM, first compound 1 µM). The viability, T/C reads like this: (second compound 1 µM, first compound 0.00316 µM) 93.4%; (second compound 1 µM, first compound 0.01 µM) 21.1%; (second compound 1 µM, first compound 0.0316 µM) 3.23%; (second compound 1 µM, first compound 0.1 µM) 2.53%; (second compound 1 µM, first compound 0.316 µM) 2.26%; (second compound 1 µM, first compound 1 µM) 3%. In addition, the viability, T/C reads like this: (second compound 3.16 µM, first compound 0.00316 µM) 84.3%; (second compound 3.16 µM, first compound 0.01 µM) 23.2%; (second compound 3.16 µM, first compound 0.0316 µM) 3.07%; (second compound 3.16 µM, first compound 0.1 µM) 2.7%; (second compound 3.16 µM, first compound 0.316 µM) 2.36%; (second compound 3.16 µM, first compound 1 µM) 0.99%. The viability, T/C is 88.8% (second compound 10 µM, first compound 0.00316 µM); 22.1% (second compound 10 µM, first compound 0.01 µM); 4.5% (second compound 10 µM, first compound 0.0316 µM); 4.11% (second compound 10 µM, first compound 0.1 µM); 2.59% (second compound 10 µM, first compound 0.316 µM); 2.26% (second compound 10 µM, first compound 1 µM).
As to `Nc1ccn(C2OC(CO)C(O)C2(F)F)c(=O)n1` (stereo unspecified), the viability, T/C runs as follows: (compound 0.0316 µM) 25.4% and 19.1% and 15.5%; (compound 0.1 µM) 8.86% and 11.2% and 9%; (compound 0.316 µM) 8.47% and 12.9% and 7.5%; (compound 1 µM) 10.6% and 10.1% and 9.75%; (compound 3.16 µM) 10.8% and 13.3% and 10.3%; (compound 10 µM) 7.47% and 10.7% and 7.2%. Besides, the IC50 (curve of compound) was below 31.6 nM.
Regarding `CCCS(=O)(=O)Nc1ccc(F)c(C(=O)c2c[nH]c3ncc(-c4ccc(Cl)cc4)cc23)c1F`, the viability, T/C was 95.9% and 86.2% and 78.9% (compound 0.0316 µM); 93.8% and 93.3% and 98.6% (compound 0.1 µM); 87.6% and 96.1% and 91.3% (compound 0.316 µM); 87% and 91% and 69% (compound 1 µM); 84.2% and 84% and 74.1% (compound 3.16 µM); 57.6% and 51.9% and 57.4% (compound 10 µM). Further, for the setting “curve of compound”, the IC50 is above 10000 nM.
